Measurements reported in patent publication US20230023559A1, “ARYLMETHYLENE HETEROCYCLIC COMPOUNDS AS KV1.3 POTASSIUM SHAKER CHANNEL BLOCKERS” (D. E. Shaw Research, LLC, priority 2019, published 2023).

These compounds were tested against T1, Kv1.3 potassium channel (Homo sapiens, UniProt P22001) (assay: Kv1.3 potassium channel blocker activity, automated whole-cell patch clamp (Patchliner)). Settings: CHO-K1 cells stably expressing Kv1.3; whole cell current inhibition; read-out: Kv1.3_IC50.
T1 construct: expressed in transfected cells
Type: cell-based
Procedure: The assay described below is used to evaluate the disclosed compound's activities as Kv1.3 potassium channel blockers.
CHO-K1 cells stably expressing Kv1.3 were grown in DMEM containing 10% heat-inactivated FBS, 1 mM Sodium Pyruvate, 2 mM L-Glutamine and G418 (500 μg/ml).
All compounds were dissolved in DMSO at 30 mM.
The currents were evoked by applying 100 ms depolarizing pulses from −90 mV (holding potential) to +40 mV were applied with 0.1 Hz frequency. […] 10 second breaks were used between pulse trains (see Table A below).
Data were sampled at 10 kHz without filtering. Passive leak currents were subtracted online using a P/4 procedure (HEKA Elektronik Dr. Schulze GmbH). […] Total compound incubation time before the next pulse train was not longer than 10 seconds. Peak current inhibition was observed during compound equilibration.

T1 sequence (P22001 whole entry): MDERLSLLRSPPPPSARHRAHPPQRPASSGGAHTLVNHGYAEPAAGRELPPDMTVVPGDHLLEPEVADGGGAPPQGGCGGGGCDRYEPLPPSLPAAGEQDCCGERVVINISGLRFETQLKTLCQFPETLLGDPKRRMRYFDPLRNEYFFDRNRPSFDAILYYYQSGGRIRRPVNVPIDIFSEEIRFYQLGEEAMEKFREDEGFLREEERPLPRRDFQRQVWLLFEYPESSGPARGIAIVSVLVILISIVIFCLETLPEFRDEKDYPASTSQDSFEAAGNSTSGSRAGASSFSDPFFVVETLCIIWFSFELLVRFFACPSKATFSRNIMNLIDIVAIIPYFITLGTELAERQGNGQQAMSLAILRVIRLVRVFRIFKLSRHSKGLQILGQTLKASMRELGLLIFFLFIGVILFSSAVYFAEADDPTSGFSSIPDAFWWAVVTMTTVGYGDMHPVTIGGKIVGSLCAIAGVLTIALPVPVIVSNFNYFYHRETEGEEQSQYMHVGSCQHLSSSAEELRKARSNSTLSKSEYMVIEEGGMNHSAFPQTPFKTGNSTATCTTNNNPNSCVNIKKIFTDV

Row | IC50 [µM] | SMILES
1 | < 10 | Cc1cc(CN2CCC(C(N)c3cc(Cl)c(Cl)cc3O)CC2)no1 (stereo not drawn) [Compound 58, 2-[amino([1-[(5-methyl-1,2-oxazol-3-yl)methyl]piperidin-4-yl])methyl]-4,5-dichlorophenol Trifluoroacetic Acid]
2 | < 10 | NC(c1cc(Cl)c(Cl)cc1O)C1CCN(CC(F)F)CC1 (stereo not drawn) [Compound 62, 2-(amino(1-(2,2-difluoroethyl)piperidin-4-yl)methyl)-4,5-dichlorophenol Trifluoroacetic Acid]
3 | < 10 | COCCN1CCC(C(N)c2cc(Cl)c(Cl)cc2O)CC1 (stereo not drawn) [Compound 64, 2-(amino(1-(2-methoxyethyl)piperidin-4-yl)methyl)-4,5-dichlorophenol]
4 | < 10 | NC(c1cc(Cl)c(Cl)cc1O)C1CCN(C2CCNC2=O)CC1 (stereo not drawn) [Compound 65, 3-(4-(amino(4,5-dichloro-2-hydroxyphenyl)methyl)piperidin-1-yl)pyrrolidin-2-one Trifluoroacetic Acid]
5 | < 10 | CS(=O)(=O)N1CCC(C(N)c2cc(Cl)c(Cl)cc2O)CC1 (stereo not drawn) [Compound 71, 2-[amino(1-methanesulfonylpiperidin-4-yl)methyl]-4,5-dichlorophenol Trifluoroacetic Acid]
6 | < 10 | NC(c1cc(Cl)c(Cl)cc1O)C1CCN(C(=O)C(F)(F)F)CC1 (stereo not drawn) [Compound 77, 1-[4-[amino(4,5-dichloro-2-hydroxyphenyl)methyl]piperidin-1-yl]-2,2,2-trifluoroethan-1-one Trifluoroacetic Acid]
7 | < 10 | NC(=O)CCN1CCC(C(N)c2cc(Cl)c(Cl)cc2O)CC1 (stereo not drawn) [Compound 78]
8 | < 10 | N[C@H](c1cc(Cl)c(Cl)cc1O)C1CCN(C(=O)[C@H]2CCNC2)CC1 [Compound 79, (4-((S)-amino(4,5-dichloro-2-hydroxyphenyl)methyl)piperidin-1-yl)((S)-pyrrolidin-3-yl)methanone]
9 | < 30 | NC(c1c(O)ccc(Cl)c1Cl)C1CCNCC1 (stereo not drawn) [Compound 86, 2-[amino(piperidin-4-yl)methyl]-3,4-dichlorophenol Bis(Trifluoroacetic Acid)]
10 | < 0.5 | CC[C@@H](N)C(=O)N1CCC([C@@H](N)c2cc(Cl)c(Cl)cc2O)CC1 [Compound 88, (R)-2-amino-1-(4-((R)-amino(4,5-dichloro-2-hydroxyphenyl)methyl)piperidin-1-yl)butan-1-one trifluoroacetic acid]
11 | < 0.5 | CC(C)(N)C(=O)N1CCC([C@@H](N)c2cc(Cl)c(Cl)cc2O)CC1 [Compound 90, (R)-2-amino-1-(4-(amino(4,5-dichloro-2-hydroxyphenyl)methyl)piperidin-1-yl)-2-methylpropan-1-one trifluoroacetic acid]
12 | < 0.5 | CC[C@H](N)C(=O)N1CCC([C@@H](N)c2cc(Cl)c(Cl)cc2O)CC1 [Compound 91, (S)-2-amino-1-(4-((R)-amino(4,5-dichloro-2-hydroxyphenyl)methyl)piperidin-1-yl)butan-1-one trifluoroacetic acid]
13 | < 10 | CC(C)C[C@H](N)C(=O)N1CCC([C@@H](N)c2cc(Cl)c(Cl)cc2O)CC1 [Compound 93, (S)-2-amino-1-(4-((R)-amino (4,5-dichloro-2-hydroxyphenyl)methyl)piperidin-1-yl)-4-methylpentan-1-one]
14 | < 0.5 | CC(C)C[C@@H](N)C(=O)N1CCC([C@@H](N)c2cc(Cl)c(Cl)cc2O)CC1 [Compound 94, (R)-2-amino-1-(4-((R)-amino(4,5-dichloro-2-hydroxyphenyl)methyl)piperidin-1-yl)-4-methylpentan-1-one trifluoroacetic acid]
15 | < 10 | CC(=O)NC(c1cc(Cl)c(Cl)cc1O)C1CCN(C(=O)[C@@H]2CCNC2)CC1 (stereo partly drawn) [Compound 108, N-((4,5-dichloro-2-hydroxyphenyl)(1-((R)-pyrrolidine-3-carbonyl)piperidin-4-yl)methyl)acetamide Trifluoroacetic Acid]
16 | < 10 | N[C@@H](c1cc(Cl)c(Cl)cc1O)C1CCN(C(=O)C2CNCC2(F)F)CC1 (stereo partly drawn) [Compound 113, (4-((R)-amino(4,5-dichloro-2-hydroxyphenyl)methyl)piperidin-1-yl)(4,4-difluoropyrrolidin-3-yl)methanone]
17 | < 10 | O=C([C@H]1CCNC1)N1CCCC(C(O)c2cc(Cl)c(Cl)cc2O)CC1 (stereo partly drawn) [Compound 128, 4,5-dichloro-2-[hydroxy([1-[(3S)-pyrrolidine-3-carbonyl]azepan-4-yl])methyl]phenol]

Row | IC50 [µM] | SMILES
18 | < 10 | CCNC(c1cc(Cl)c(Cl)cc1O)C1CCN(C(=O)C(O)CO)CC1 (stereo not drawn) [Compound 182, 1-[4-[(4,5-dichloro-2-hydroxyphenyl)(ethylamino)methyl]piperidin-1-yl]-2,3-dihydroxypropan-1-one Trifluoroacetic Acid]
19 | < 10 | CNC(c1cc(Cl)c(Cl)cc1O)C1CCN(C(=O)C(O)CO)CC1 (stereo not drawn) [Compound 184, 1-[4-[(4,5-dichloro-2-hydroxyphenyl)(methylamino)methyl]piperidin-1-yl]-2,3-dihydroxypropan-1-one Trifluoroacetic Acid]
20 | < 10 | N[C@@H](c1c(O)ccc(Cl)c1Cl)C1CCN(C(=O)[C@H](O)CO)CC1 [Compound 187, (2R)-1-[4-[(R)-amino(2,3-dichloro-6-hydroxyphenyl)methyl]piperidin-1-yl]-2,3-dihydroxypropan-1-one Trifluoroacetic Acid]
21 | < 30 | CN(C)C(c1cc(Cl)c(Cl)cc1O)C1CCN(C(=O)[C@H](O)CO)CC1 (stereo partly drawn) [Compound 193, (2R)-1-[4-[(4,5-dichloro-2-hydroxyphenyl)(dimethylamino)methyl]piperidin-1-yl]-2,3-dihydroxypropan-1-one Trifluoroacetic Acid]
22 | < 30 | CCNC(c1cc(Cl)c(Cl)cc1O)C1CCN(C(=O)[C@H](O)CO)CC1 (stereo partly drawn) [Compound 202, (2R)-1-[4-[(4,5-dichloro-2-hydroxyphenyl)(ethylamino)methyl]piperidin-1-yl]-2,3-dihydroxypropan-1-one Trifluoroacetic Acid]
23 | < 10 | NC(c1cc(Cl)c(Cl)cc1O)[C@@H]1C[C@@H]2CN(C(=O)[C@H](O)CO)C[C@@H]2C1 (stereo partly drawn) [Compound 225, (2R)-1-((3aR,5R,6aS)-5-(amino(4,5-dichloro-2-hydroxyphenyl)methyl)hexahydrocyclopenta[c]pyrrol-2 (1H)-yl)-2,3-dihydroxypropan-1-one]
24 | < 0.5 | N[C@@H](c1cc(Cl)c(C(F)F)cc1O)C1CCN(C(=O)[C@H](O)CO)CC1 [Compound 227, (2R)-1-[4-[(R)-amino[5-chloro-4-(difluoromethyl)-2-hydroxyphenyl]methyl]piperidin-1-yl]-2,3-dihydroxypropan-1-one Trifluoroacetic Acid]
25 | < 10 | N[C@@H](c1cc(Cl)c(Cl)cc1O)C1CCN(C(=O)[C@@H]2CNC(=O)CO2)CC1 [Compound 229, (6S)-6-[4-[(R)-amino(4,5-dichloro-2-hydroxyphenyl)methyl]piperidine-1-carbonyl]morpholin-3-one Trifluoroacetic Acid]
26 | < 10 | Cc1[nH]c(=O)ccc1C(=O)N1CCC([C@@H](N)c2cc(Cl)c(Cl)cc2O)CC1 [Compound 230, (R)-5-(4-(amino(4,5-dichloro-2-hydroxyphenyl)methyl)piperidine-1-carbonyl)-6-methylpyridin-2(1H)-one]
27 | < 0.5 | Cc1cc(O)c([C@H](N)C2CCN(C(=O)c3ccncc3)CC2)cc1Cl [Compound 234, 2-[(R)-amino[1-(pyridine-4-carbonyl)piperidin-4-yl]methyl]-4-chloro-5-methylphenol trifluoroacetic acid]
28 | < 0.5 | CO[C@H](CO)C(=O)N1CCC([C@@H](N)c2cc(Cl)c(C)cc2O)CC1 [Compound 250, (2R)-1-[4-[(R)-amino(5-chloro-2-hydroxy-4-methylphenyl)methyl]piperidin-1-yl]-3-hydroxy-2-methoxypropan-1-one trifluoroacetic acid]
29 | < 0.5 | COc1cc(C(=O)N2CCC([C@@H](N)c3cc(Cl)c(C)cc3O)CC2)c[nH]c1=O [Compound 251, 5-[4-[(R)-amino(5-chloro-2-hydroxy-4-methylphenyl)methyl]piperidine-1-carbonyl]-3-methoxy-1H-pyridin-2-one Trifluoroacetic Acid]
30 | < 0.5 | N[C@@H](c1cc(Cl)c(Cl)cc1O)C1CCN(C(=O)c2c[nH]c(=O)[nH]c2=O)CC1 [Compound 252, 5-[4-[(R)-amino(4,5-dichloro-2-hydroxyphenyl)methyl]piperidine-1-carbonyl]-1,3-dihydropyrimidine-2,4-dione formic acid]
31 | < 0.5 | N[C@@H](c1cc(Cl)c(Cl)cc1O)C1CCN(C(=O)c2ccc(=O)[nH]n2)CC1 [Compound 253, 6-[4-[(R)-amino(4,5-dichloro-2-hydroxyphenyl)methyl]piperidine-1-carbonyl]-2H-pyridazin-3-one trifluoroacetic acid]
32 | < 0.5 | N[C@@H](c1cc(Cl)c(Cl)cc1O)C1CCN(C(=O)c2c[nH]c(=O)[nH]2)CC1 [Compound 254, 4-[4-[(R)-amino(4,5-dichloro-2-hydroxyphenyl)methyl]piperidine-1-carbonyl]-1,3-dihydroimidazol-2-one trifluoro-acetic acid]
33 | < 0.5 | N[C@@H](c1cc(Cl)c(Cl)cc1O)C1CCN(C(=O)c2c[nH]c(=O)c(Cl)c2)CC1 [Compound 255, 5-[4-[(R)-amino(4,5-dichloro-2-hydroxyphenyl)methyl]piperidine-1-carbonyl]-3-chloro-1H-pyridin-2-one]
